In patent publication US6969590B2, “Use of a polypeptide for treatment of pruritus in animals” (Zengen, Inc., priority 2001, dated 2005):

Legend:
[1] = tested on: carrageenan-induced swelling in rat paws; test: Rat paw edema test; format: in vivo, Sprague-Dawley rats
Description: A second in vivo bioassay for anti-inflammatory activity was conducted in which the action of the tripeptide was compared to that of hydrocortisone. In this assay, the two agents were given at similar doses and tested for their independent ability to inhibit carrageenan-induced swelling in rat paws. This assay, the rat paw edema test, was conducted generally as it is typically performed in the art, for example, as described by Winter et al. (1962), Proc. Soc. Exp. Biol. Med., 111:544 or in U.S. Pat. No. 4,150,137. Briefly, the assay was performed as follows. Each of twenty-four male Sprague-Dawley rats was assigned to one of four groups: Tripeptide treatment and controls (matched according to body weight and initial paw volume), hydrocortisone treatment and matched controls. The volume of the right rear paw of the test and control animals was determined using standard procedures and a mercury displacement volumetric technique. […] One hour later 0.5 ml of 1% lambda carrageenan in saline solution was injected into the right rear paw of the animals and the paw volume was again recorded (baseline measure). For comparison of the effects of the two treatments, paw volume of experimental animals measured at hourly intervals was expressed as a percentage of the volume change of their respective matched controls.

NO2^− = test: Nitrite (NO) production by activated N9 microglia; format: cell-based, murine; settings: microglia stimulated with LPS+IFN-γ for 24 hr, micromolar concentrations
Description: (§1) The N9 clone of murine microglial cells was obtained by immortalization of embryonic brain cultures with the 3RV retrovirus carrying an activated v-myconcogene. N9 cells were cultured in T-75-cm^2 culture flasks (Corning, Cambridge, Mass.) and maintained at 37° C. in a humidified incubator under 5% CO2 atmosphere in RPMI 1640 supplemented with 2 mM L-glutamine, 50 U/mL penicillin G, 50 μg/mL streptomycin sulfate (GIBCO-BBL, Paisley, UK), and 10% heat-inactivated fetal bovine serum (FBS, Hyclone Lab, Inc., Logan, Utah) until experiments were performed. Cells were used between the first and the tenth passage.
(§2) Sub-confluent microglial cells were washed twice with phosphate-buffered saline (PBS) and incubated with trypsin 0.025% and ethylenediaminetetraacetate (EDTA) 0.02% without calcium and magnesium for 3 min. at 37° C. to detach the cells from the culture flask. Cells were then resuspended in medium and incubated in 24-well tissue-culture plates at a concentration of 2×10^5 cells/mL for 16 h in a humidified incubator (37° C., 5% CO2). Growth medium was removed and cell monolayers were stimulated with 10 ng/mL lipopolysaccharide (LPS, from Escherichia coli 055:B5, Sigma Chemical Co., St. Louis, Mo.) plus 1 U/ml, murine IFN-γ (Sigma). To test effects of melanocortin peptides, concentrations (1, 10, 25, 50 and 100 μM) of α-MSH (1-13), α-MSH (11-13), and ACTH (1-24) (Sigma) were dissolved in medium and added to wells 10 min before treatment with LPS+IFN-γ. […] Viability of cells was assessed by trypan blue exclusion for each experimental condition; it was consistently >98%. […]
NO is rapidly oxidized to nitrite (NO2) in culture medium, and nitrite concentration is an indicator of NO production. […] Samples were incubated at room temperature for 10 min and absorbency was measured at 540 nm with the use of a microplate reader. Nitrite concentrations were calculated using a sodium nitrite standard curve.
(§3) Effects of melanocortin peptides on cytokine and NO production were evaluated by repeated measures analysis of variance followed by Dunnet's test for specific comparisons. […]

IL-6 = IL-6 production by activated N9 microglia; format: cell-based, murine; settings: microglia stimulated with LPS+IFN-γ for 24 hr, micromolar concentrations
Description: as §1, §2
(§4) TNF-α bioactivity was measured in supernatants of cell cultures by standard cytotoxicity assay using L929 cells and recombinant human TNF-α (Sigma) as standard. […] IL-6 was measured using a commercial murine enzyme-linked immunosorbent assay (ELISA: RPN 2714, Amersham, Little Chalfont, UK).
as §3

TNF-α = TNF-α production by activated N9 microglia; format: cell-based, murine; settings: microglia stimulated with LPS+IFN-γ for 24 hr, micromolar concentrations
Description: as §1, §2, §4, §3

TNF-α and iNOS mRNA = test: Northern blot of TNF-α and iNOS mRNA in activated microglia; format: cell-based, murine
Description: Total cellular RNA was extracted from 10^6 adherent microglial cells plated in six-well tissue culture plates (Corning). Electrophoresis of RNA samples (10 μg/lane) was performed in 1% agarose/2.2 M formaldehyde gels and the gels subsequently blotted onto nylon filters by capillary action and baked for 2 h before prehybridization. The cDNA fragments encoding murine TNF-α and mouse macrophage iNOS were ^32P-labeled using the Ready-To-Go DNA Labeling Kit (Pharmacia, Uppsala, Sweden) before hybridization of nylon filters and autoradiography. Blots were subsequently rehybridized with human glyceraldehyde-3-phosphate dehydrogenase (G-3-PDH) cDNA probe as an internal control (Clontech Laboratories, Inc., Palo Alto, Calif.).

[2] = tested on: inflammation induced in the ear by picryl chloride; test: Picryl chloride-induced ear swelling; format: in vivo, BALB/C mice
Description: Female BALB/C mice (Simmons Laboratories), 7 weeks old, were housed at 23-25° C. in groups of no more than 5 per cage [28 cm (L)×18 cm (W)×13 cm (H)]. They were allowed to acclimatize to standard lighting and temperature conditions for at least 1 week, with food and water available ad lib, before the experiment began. Five to ten animals were randomly assigned to each treatment group each test day, and all experiments were repeated at least twice to confirm reproducibility. To reduce error due to slight differences in responses to the irritant of animals from different shipments, tests of each agent were performed as separate experiments in which experimental and control animals were drawn from the same shipment.
In the experiments each animal was anesthetized with 1 mg of pentobarbital sodium solution (50 mg/kg, Nembutal, Abbott Laboratories, Abbott park, Ill.). Baseline ear thickness was measured for both ears with a spring-loaded micrometer (Swiss Precision Instruments, Los Angeles, Calif.). Ear thickness was expressed in units of 10^−3 cm; the average thickness of unstimulated ears was approximately 25-30×10^−3 cm. After baseline measurements were taken, one of six solutions was injected IP. Control animals received 0.2 ml of sterile saline, and experimental animals received Ac-α-MSH (11-13)-NH2, i.e., Ac-Lys-Pro-Val-NH2), Ac[D-Lys^11] α-MSH (11-13)-NH2, Ac[D-Pro^12] α-MSH (11-13)-NH2, Ac[D-Val^13] α-MSH (11-13)-NH2 or Ac-[D-Lys^11, D-Val^13] α-MSH (11-13)-NH2 in the same volume of saline. […] The doses of the tripeptides were 10 μg ([…]), 20 μg ([…]), 40 μg (1.04×10^−7 M), and 80 μg (2.08×10^−7 M). Immediately after saline or α-MSH injection, a micropipette was used to coat both sides of each ear with 10 μl (40 μl per mouse) of a 0.5% picryl chloride (Polysciences, Warrington, Pa.) solution in acetone.
Ear thickness was remeasured 3 and 6 h after picryl chloride application. Swelling was determined by subtracting baseline thickness from the measurements for each ear at 3 and 6 h. The differences for both ears were then averaged for the final analysis.
Repeated-measure ANOVA techniques were used to determine if there was an overall difference among group data for each peptide tested in separate experiments. In those cases in which the ANOVA yielded significant results, Dunnett's test was then used to compare the effects of peptide doses with control (saline) data for each of the two time periods, 3 and 6 h.

[3] = tested on: histamine-induced blue weal formation; test: Sparrow/Wilhelm assay: histamine-induced blue wheals; format: in vivo, New Zealand white rabbits; settings: for relative intensity of blue wheals, experimental vs control: scored 30 minutes after histamine
Text: This model relies on the principal that localized, subcutaneous injections of histamine will result in a localized increase in capillary permeability. When the test animal has been pretreated with blue dye intravenously, the localized histamine injections will elicit blue-colored wheals around the injection site. Thus, by pre-administration of an effective anti-inflammatory agent the blue color of the histamine-induced wheals will be much less pronounced, with the amount of color reduction being dependent on the relative amount and/or potency of the anti-inflammatory agent used.
Non-molting New Zealand white rabbits were used for the Sparrow/Wilhelm assay. The skin of the rabbits back was closely clipped 1-2 days previous to the experiment, but not depilated, and the rabbits were kept warm until tested. Various amounts of the protected tripeptide Ac-Lys-Pro-Val-NH2 were injected intravenously into an ear vein approximately 15 minutes prior to intravenous injection of blue dye. Control rabbits received sham injections. Fifteen minutes following injection of the agent or sham, the rabbits received approximately 30 mg/kg of Pontamine blue dye as a 2.5% solution in 0.45% saline, into an exposed vein. Immediately following dye injections, histamine was injected intradermally in a 0.10 ml volume (1.25 mg histamine 0.1 ml volume) at several sites on each side of the spine. In all, one vertical row of six injections were made on each side of the spine. The relative intensity of the resultant blue wheals were scored by an independent observer 30 minutes after histamine injection.

[4] = tested on: inflammation induced in the hind paw; test: Kappa carrageenan-induced hind paw inflammation, spinal cord intact or transected; format: in vivo, BALB/c mice; settings: given intraperitoneally, spinal cord transection
Description: Because surgical dissection of trigeminal structures that innervate the ear of the mouse is very difficult, tests to learn whether descending neural pathways are essential to the anti-inflammatory activity of centrally administered α-MSH peptides were performed in mice with inflammation induced in a hind paw. In these experiments, each animal was anesthetized with pentobarbital sodium solution as above. Baseline footpad thickness of both hind paws was measured with a spring-loaded micrometer (Swiss Precision Instruments, Los Angeles, Calif.). Paw thickness was expressed in units of 10^−3 cm; average thickness of unstimulated paws was 171.5×10^−3 cm across shipments of animals. Kappa carrageenan (Sigma) dissolved in saline (0.05%, 20 μl) was injected (28 gauge allergy test syringe) into one footpad, and saline (20 μl) was injected into the other. For the analyses, the increase in thickness of the control saline-injected paw of each animal was subtracted from that of the carrageenan-injected paw, to eliminate the influence of mechanical injury and volume of the injected fluid. To be certain that mice with severed spinal cords can react to anti-inflammatory agents, prednisolone (2.5 mg/mouse (IP injection)) was administered to 10 mice with spinal transection and inflammation induced by carrageenan. Treatment with the locally acting steroid reduced swelling up to 29% (average, relative to saline controls) at 4.5 h. after carrageenan.
However, a standardized crushing of lumbar vertebrae with a hemostat was effective in severing the cord; no deaths were caused by this treatment. […] The experiments were limited to 4.5 h to reduce problems of bowel and bladder dysfunction. Immediately after the 4.5 h measurements all mice were killed with an overdose of sodium pentobarbital.
Because of the size of the experiments and the requirement for several shipments of animals over time, several experiments were performed, each with complete treatment and control groups drawn from the same shipment of mice. Omnibus analysis of variance techniques (Dynastat, Washington, D.C.) were used to test overall differences among group means. Tukey's protected t test was used to compare individual means. Probability values of <0.05 were considered significant.

C[C@]12CCC(=O)C=C1CC[C@@H]1[C@@H]2[C@@H](O)C[C@@]2(C)[C@H]1CC[C@]2(O)C(=O)CO [hydrocortisone, reference compound]
inhibition of paw swelling in the first hour ([1]; 100 mg/kg intraperitoneal, first hour): markedly inhibited swelling

ACTH (1-24): melanocortin peptide ACTH (1-24) (SYSMEHFRWGKPVGKKRRPVKVYP; Corticotropin; UniProt P01189 138-161, looked up, fragment) [reference compound]
reduction of production of NO2^− (NO2^−): 41% | reduction of production of IL-6 (IL-6): 65% | reduction of production of TNF-α (TNF-α): 38% | mRNA for TNF-α and iNOS (Northern blot) (TNF-α and iNOS mRNA): inhibition of mRNA transaction for TNF-α and iNOS

Ac-Lys-Pro-Val-NH2 [Ac-α-MSH(11-13)-NH2, protected tripeptide]
% Inhibition of swelling ([2]; 10 μg IP, 3 h): 26% | % Inhibition of swelling ([2]; 10 μg IP, 6 h): 25% | % Inhibition of swelling ([2]; 20 μg IP, 3 h): 21% | % Inhibition of swelling ([2]; 20 μg IP, 6 h): 19% | % Inhibition of swelling ([2]; 40 μg IP, 3 h): 33% | % Inhibition of swelling ([2]; 40 μg IP, 6 h): 26% | % Inhibition of swelling ([2]; 80 μg IP, 3 h): 50% | % Inhibition of swelling ([2]; 80 μg IP, 6 h): 42% | overall effect on ear inflammation (ANOVA) ([2]; 10-80 μg IP, 3 and 6 h): inhibited acute inflammation | relative intensity of blue wheals, experimental vs control ([3]; 0.625 ug/kg intravenously): No difference | relative intensity of blue wheals, experimental vs control ([3]; 1.25 ug/kg intravenously): E lighter than C | relative intensity of blue wheals, experimental vs control ([3]; 5 ug/kg intravenously): E lighter than C | relative intensity of blue wheals, experimental vs control ([3]; 10 ug/kg intravenously): E lighter than C | lowest intravenous dose with appreciable reduction in blue weal formation ([3]; intravenous): 1.25 ug tripeptide per kg body weight | anti-inflammatory effect after spinal cord transection [4]: marked inhibitory effect on inflammation | inhibition of paw edema compared with hydrocortisone ([1]; 100 mg/kg intraperitoneal each, hourly, after the first hour): no significant difference in the inhibition of paw edema
